From patent US11098203B2, “Polymer coatings” (COMMONWEALTH SCIENTIFIC AND INDUSTRIAL RESEARCH ORGANISATION, priority 2016, dated 2021)

C=CC(=O)N1C(=C)C(c2ccccc2F)CC1=O (stereo not shown) [DHP, 5-methylene-1-(prop-2-enoyl)-4-(2-fluorophenyl)-dihydropyrrol-2-one]
melting point: 121 to 122 °C
